From PubChem BioAssay (NCI)
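A five-concentration, 48-hour dose response in 96-well plates underlies each endpoint, interpolated linearly between surrounding concentrations. Here, GI50 denotes the concentration required for 50% inhibition of growth. Definition used: TGI = concentration required for complete inhibition of growth.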

Experiments:
Test in all cases: NCI anticancer screen, dose series, 48 h
CCRF-CEM leukemia = system: CCRF-CEM leukemia
EKVX NSCLC = system: EKVX NSCLC
HT29 colon = system: HT29 colon
K-562 leukemia = system: K-562 leukemia
NCI-H226 lung = system: NCI-H226 lung
PC-3 prostate = system: PC-3 prostate
SK-OV-3 ovarian = system: SK-OV-3 ovarian
SNB-75 CNS = system: SNB-75 CNS
U251 CNS = system: U251 CNS
UO-31 renal = system: UO-31 renal

COc1ccc(C2[C@@H](Cl)C(=O)N2c2cc(OC)c(OC)c(OC)c2)cc1Cl (stereo not given in full)
GI50 (CCRF-CEM leukemia): 0.19 µM
TGI (CCRF-CEM leukemia): 39.4 µM
GI50 (EKVX NSCLC): 0.434 µM
TGI (EKVX NSCLC): > 100 µM
GI50 (HT29 colon): 0.221 µM
TGI (HT29 colon): 0.752 µM
GI50 (K-562 leukemia): 0.041 µM
TGI (K-562 leukemia): > 100 µM
GI50 (NCI-H226 lung): 0.239 µM
TGI (NCI-H226 lung): 34 µM
GI50 (PC-3 prostate): 0.0642 µM
TGI (PC-3 prostate): > 100 µM
GI50 (SK-OV-3 ovarian): 0.29 µM
TGI (SK-OV-3 ovarian): > 100 µM
GI50 (SNB-75 CNS): 0.0734 µM
TGI (SNB-75 CNS): 71.2 µM
GI50 (U251 CNS): 0.197 µM
TGI (U251 CNS): 21.3 µM
GI50 (UO-31 renal): 1.09 µM
TGI (UO-31 renal): 32.7 µM

O=C(O)COc1c(Cl)cc(Cl)c2cccnc12
TGI (CCRF-CEM leukemia): > 100 µM
TGI (EKVX NSCLC): > 100 µM
TGI (HT29 colon): > 100 µM
TGI (K-562 leukemia): > 100 µM
TGI (NCI-H226 lung): > 100 µM
TGI (PC-3 prostate): > 100 µM
TGI (SK-OV-3 ovarian): > 100 µM
TGI (SNB-75 CNS): > 100 µM
TGI (U251 CNS): > 100 µM
TGI (UO-31 renal): > 100 µM

CC(C)(C)c1ccc(C(=O)Nc2sc3c(c2C(N)=O)CCC(=O)C3)cc1
GI50 (CCRF-CEM leukemia): 0.215 µM
TGI (CCRF-CEM leukemia): 3.37 µM
GI50 (EKVX NSCLC): 1.97 µM
TGI (EKVX NSCLC): 4.82 µM
GI50 (HT29 colon): 0.489 µM
TGI (HT29 colon): 3.5 µM
GI50 (K-562 leukemia): 0.127 µM
GI50 (NCI-H226 lung): 1.53 µM
TGI (NCI-H226 lung): 3.43 µM
GI50 (PC-3 prostate): 0.188 µM
TGI (PC-3 prostate): 1.48 µM
GI50 (SK-OV-3 ovarian): 2.81 µM
TGI (SK-OV-3 ovarian): 8.75 µM
GI50 (SNB-75 CNS): 1.11 µM
TGI (SNB-75 CNS): 2.53 µM
GI50 (U251 CNS): 0.345 µM
TGI (U251 CNS): 1.43 µM
GI50 (UO-31 renal): 0.425 µM
TGI (UO-31 renal): 1.46 µM

O=C(Nc1cccc(Nc2ncc(Br)c(NCCc3cnc[nH]3)n2)c1)N1CCCC1
GI50 (CCRF-CEM leukemia): 0.58 µM
TGI (CCRF-CEM leukemia): 29 µM
GI50 (EKVX NSCLC): 6.07 µM
TGI (EKVX NSCLC): 38.1 µM
GI50 (HT29 colon): 3.85 µM
TGI (HT29 colon): 24.2 µM
GI50 (K-562 leukemia): 2.84 µM
TGI (K-562 leukemia): > 64.9 µM
GI50 (NCI-H226 lung): 0.771 µM
TGI (NCI-H226 lung): 4.74 µM
GI50 (PC-3 prostate): 3.2 µM
TGI (PC-3 prostate): 45.6 µM
GI50 (SK-OV-3 ovarian): 4.95 µM
TGI (SK-OV-3 ovarian): 32.4 µM
GI50 (SNB-75 CNS): 1.28 µM
TGI (SNB-75 CNS): 4.96 µM
GI50 (U251 CNS): 5.22 µM
TGI (U251 CNS): 45.8 µM
GI50 (UO-31 renal): 13.4 µM
TGI (UO-31 renal): 45.8 µM

C[C@@H]1O[C@@H](O[C@H]2CC[C@@]3(C)[C@H](CCC4[C@@H]3C(O)C[C@]3(C)[C@@H](c5ccc(=O)oc5)CC[C@]43O)C2)[C@H](O)[C@H](O)[C@H]1O (stereo not given in full)
GI50 (CCRF-CEM leukemia): < 0.00325 µM
TGI (CCRF-CEM leukemia): 0.0076 µM
GI50 (EKVX NSCLC): 0.00379 µM
TGI (EKVX NSCLC): 0.00766 µM
GI50 (HT29 colon): 0.00481 µM
TGI (HT29 colon): 0.00975 µM
GI50 (K-562 leukemia): 0.00984 µM
TGI (K-562 leukemia): 0.879 µM
GI50 (NCI-H226 lung): 0.00608 µM
TGI (NCI-H226 lung): 0.0107 µM
GI50 (PC-3 prostate): 0.00462 µM
TGI (PC-3 prostate): 0.0296 µM
GI50 (SK-OV-3 ovarian): 0.00502 µM
TGI (SK-OV-3 ovarian): 0.00987 µM
GI50 (SNB-75 CNS): 0.0047 µM
TGI (SNB-75 CNS): 0.0107 µM
GI50 (U251 CNS): 0.0052 µM
TGI (U251 CNS): 0.00974 µM
GI50 (UO-31 renal): 0.00577 µM
TGI (UO-31 renal): 0.015 µM

Cc1ccc(C2=Nc3ccccc3SC(c3cccc([N+](=O)[O-])c3)C2)cc1 (stereo not given)
TGI (EKVX NSCLC): > 100 µM
TGI (HT29 colon): > 100 µM
TGI (K-562 leukemia): 23.8 µM
TGI (NCI-H226 lung): > 100 µM
TGI (PC-3 prostate): > 100 µM
TGI (SK-OV-3 ovarian): > 100 µM
TGI (SNB-75 CNS): 38.6 µM
TGI (U251 CNS): 16.9 µM
TGI (UO-31 renal): 23 µM

CN1CCC(n2cnc(-c3ccc(F)cc3)c2-c2ccnc(N)n2)CC1
GI50 (CCRF-CEM leukemia): 14.4 µM
TGI (CCRF-CEM leukemia): > 25 µM
GI50 (EKVX NSCLC): 10.3 µM
TGI (EKVX NSCLC): > 25 µM
GI50 (HT29 colon): 6.2 µM
TGI (HT29 colon): > 25 µM
GI50 (K-562 leukemia): 11.6 µM
TGI (K-562 leukemia): > 25 µM
GI50 (NCI-H226 lung): 10.9 µM
TGI (NCI-H226 lung): > 25 µM
GI50 (PC-3 prostate): 9.28 µM
TGI (PC-3 prostate): > 25 µM
GI50 (SK-OV-3 ovarian): 10.8 µM
TGI (SK-OV-3 ovarian): > 25 µM
GI50 (SNB-75 CNS): 10 µM
TGI (SNB-75 CNS): > 23.9 µM
GI50 (U251 CNS): 8.53 µM
TGI (U251 CNS): > 25 µM
GI50 (UO-31 renal): 2.55 µM
TGI (UO-31 renal): 16.1 µM

CC(C)(C)CN1CCn2c(nc3c(N)nccc32)S1
GI50 (CCRF-CEM leukemia): 10.2 µM
TGI (CCRF-CEM leukemia): > 100 µM
GI50 (EKVX NSCLC): 30.9 µM
TGI (EKVX NSCLC): > 100 µM
GI50 (K-562 leukemia): 4.64 µM
TGI (K-562 leukemia): 67.7 µM
GI50 (NCI-H226 lung): 37.2 µM
TGI (NCI-H226 lung): > 100 µM
GI50 (PC-3 prostate): 11 µM
TGI (PC-3 prostate): > 100 µM
GI50 (SK-OV-3 ovarian): 5.15 µM
TGI (SK-OV-3 ovarian): 81 µM
GI50 (SNB-75 CNS): 51.5 µM
TGI (SNB-75 CNS): > 100 µM
GI50 (U251 CNS): 13.3 µM
TGI (U251 CNS): 47.2 µM
GI50 (UO-31 renal): 37.1 µM
TGI (UO-31 renal): > 100 µM

Cc1c(C2=C(c3cn(C)c4ccccc34)C(=O)NC2=O)c2ccccc2n1C
GI50 (CCRF-CEM leukemia): 1.47 µM
TGI (CCRF-CEM leukemia): > 25 µM
GI50 (HT29 colon): 1.12 µM
TGI (HT29 colon): > 25 µM
GI50 (K-562 leukemia): 1.21 µM
TGI (K-562 leukemia): > 25 µM
GI50 (NCI-H226 lung): 4.33 µM
TGI (NCI-H226 lung): > 25 µM
GI50 (PC-3 prostate): 4.38 µM
TGI (PC-3 prostate): > 25 µM
GI50 (SK-OV-3 ovarian): 1.78 µM
TGI (SK-OV-3 ovarian): > 25 µM
GI50 (SNB-75 CNS): 0.732 µM
TGI (SNB-75 CNS): 7.38 µM
GI50 (U251 CNS): 2.01 µM
TGI (U251 CNS): > 25 µM
GI50 (UO-31 renal): 1.74 µM
TGI (UO-31 renal): > 25 µM

CC1(C)CCC[C@]2(C)[C@@H](C=O)C(C=O)=CC[C@@H]12
TGI (CCRF-CEM leukemia): 80.1 µM
TGI (EKVX NSCLC): > 100 µM
TGI (HT29 colon): 30 µM
TGI (NCI-H226 lung): 56.1 µM
TGI (PC-3 prostate): > 100 µM
TGI (SK-OV-3 ovarian): > 100 µM
TGI (U251 CNS): 46.9 µM
TGI (UO-31 renal): 29.9 µM

CN(C)c1ccc(N=Nc2ccncc2)cc1
TGI (CCRF-CEM leukemia): > 100 µM
TGI (EKVX NSCLC): > 100 µM
TGI (HT29 colon): > 100 µM
TGI (K-562 leukemia): > 100 µM
TGI (NCI-H226 lung): > 100 µM
TGI (PC-3 prostate): > 100 µM
TGI (SK-OV-3 ovarian): > 100 µM
TGI (U251 CNS): > 100 µM
TGI (UO-31 renal): > 100 µM

CC1(C)N=C(N)N=C(N)N1c1ccc(CCCCc2ccc(S(=O)(=O)F)cc2)c(Cl)c1
GI50 (CCRF-CEM leukemia): 0.107 µM
TGI (CCRF-CEM leukemia): 17.4 µM
GI50 (HT29 colon): 0.0566 µM
TGI (HT29 colon): 15.3 µM
GI50 (K-562 leukemia): 0.0628 µM
TGI (K-562 leukemia): 17.9 µM
GI50 (NCI-H226 lung): 0.626 µM
TGI (NCI-H226 lung): 25.9 µM
GI50 (PC-3 prostate): 0.0493 µM
TGI (PC-3 prostate): 15.9 µM
GI50 (SK-OV-3 ovarian): 7.97 µM
TGI (SK-OV-3 ovarian): 25.5 µM
GI50 (SNB-75 CNS): 0.514 µM
TGI (SNB-75 CNS): 18.9 µM
GI50 (U251 CNS): 0.0936 µM
TGI (U251 CNS): 16.4 µM
GI50 (UO-31 renal): 9.59 µM
TGI (UO-31 renal): > 100 µM

O=[N+]([O-])c1cc(S(=O)(=O)Oc2ccccc2)ccc1Cl
GI50 (CCRF-CEM leukemia): 0.594 µM
TGI (CCRF-CEM leukemia): 3.53 µM
GI50 (EKVX NSCLC): 1.99 µM
TGI (EKVX NSCLC): 4.07 µM
GI50 (K-562 leukemia): 0.432 µM
TGI (K-562 leukemia): > 100 µM
GI50 (NCI-H226 lung): 7.71 µM
TGI (NCI-H226 lung): 21.1 µM
GI50 (PC-3 prostate): 2.05 µM
TGI (PC-3 prostate): 4.45 µM
GI50 (SK-OV-3 ovarian): 6.21 µM
TGI (SK-OV-3 ovarian): 18.8 µM
GI50 (SNB-75 CNS): 2.54 µM
TGI (SNB-75 CNS): 6.5 µM
GI50 (U251 CNS): 1.27 µM
TGI (U251 CNS): 2.6 µM
GI50 (UO-31 renal): 1.75 µM
TGI (UO-31 renal): 3.17 µM

Cn1cncc1CC1COC(=O)C1C(O)c1ccccc1 (stereo not given)
TGI (CCRF-CEM leukemia): > 100 µM
TGI (EKVX NSCLC): > 100 µM
TGI (HT29 colon): > 100 µM
TGI (K-562 leukemia): > 100 µM
TGI (NCI-H226 lung): > 100 µM
TGI (PC-3 prostate): > 100 µM
TGI (SK-OV-3 ovarian): > 100 µM
TGI (SNB-75 CNS): > 100 µM
TGI (U251 CNS): > 100 µM

CN1CCN(Cc2ccc(NC(=O)c3[nH]ncc3Nc3ncnc4sc5c(c34)CCCC5)cc2)CC1
GI50 (CCRF-CEM leukemia): 0.179 µM
TGI (CCRF-CEM leukemia): 0.823 µM
GI50 (HT29 colon): 0.234 µM
TGI (HT29 colon): 1.92 µM
GI50 (K-562 leukemia): 0.198 µM
TGI (K-562 leukemia): 1.14 µM
GI50 (PC-3 prostate): 0.198 µM
TGI (PC-3 prostate): 1.33 µM
GI50 (SK-OV-3 ovarian): 0.198 µM
TGI (SK-OV-3 ovarian): 3.01 µM
GI50 (SNB-75 CNS): 0.104 µM
TGI (SNB-75 CNS): 1.44 µM
GI50 (UO-31 renal): 0.356 µM
TGI (UO-31 renal): 1.75 µM
